Measured values from the supplement of paper PMC11208160.

Assay: recombinant barcode read abundance after kanamycin selection (control-corrected) (log10(CPM+1)); higher = more efficient recombination; sequences stand for … in AGTGCAGAGAAAATCGGCCAGTTTTCTCTGCCTGCAGTCCGCATGCCGT…ATTTATGCAGCGGACTGCCTTTCTCCCAAAGTGATAAACCGGACAGTATCATGGACCGGTTTTCCCGGTAATCCGTATTTGCAAGGTTGGTTTCACT; site = the 11-nt target
Protocol: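 Same pooled E. coli target screen (IS621 bridge recombinase, kanamycin selection, control-corrected CPM, mean of 2 biological replicates). Here the two core-binding nucleotides of the LTG and RTG of the bridge RNA target-binding loop are mutated. Target and donor CT cores are held constant, and the other 9 guide positions match the target. The target is read from the library oligo sequence. Molecule = full bridge RNA written as DNA: nt 1-80 from the library oligo, rest WT scaffold.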

First: GAGTCCAATTGGGTTCTAACCTGTTGCGTAT [GAGTCCACTAC_LTGcore_AT_RTGcore_AT] (site GAGTCCACTAC) (LTG core: AT, RTG core: AT)
Second: GAGGCCTCTTGGGTTCTAACCTGTTGCCAAG [GAGGCCTCTTG_LTGcore_CT_RTGcore_CT] (site GAGGCCTCTTG) (LTG core: CT, RTG core: CT)
The “recombinant barcode read abundance (log10)” value of the first is lower: 0.0548 for the first, 1.82 for the second.

Compared with “GAGTCCTCTTGGGTTCTAACCTGTTGCCTTA [GAGTCCTCTAG_LTGcore_CT_RTGcore_TA] (site GAGTCCTCTAG) (LTG core: CT, RTG core: TA)”, “AGGAGGTCTTGGGTTCTAACCTGTTGCCTCC [AGGAGGTCTAG_LTGcore_CT_RTGcore_GG] (site AGGAGGTCTAG) (LTG core: CT, RTG core: GG)” is lower in “recombinant barcode read abundance (log10)” value: 1.48 for the first, 0.0685 for the second.

“TGTATTCTGTGGGTTCTAACCTGTTGCCTCA [TGTATTCCTAG_LTGcore_TG_RTGcore_TG] (site TGTATTCCTAG) (LTG core: TG, RTG core: TG)” and “ATGCTTTTATGGGTTCTAACCTGTTGCCTAG [ATGCTTTCTAG_LTGcore_TA_RTGcore_CT] (site ATGCTTTCTAG) (LTG core: TA, RTG core: CT)” are within 0.2 log units of each other in “recombinant barcode read abundance (log10)” value: 0.205 for the first, 0.238 for the second.

“CGAGCCCAGTGGGTTCTAACCTGTTGCTGAG [CGAGCCCCTCA_LTGcore_AG_RTGcore_CT] (site CGAGCCCCTCA) (LTG core: AG, RTG core: CT)” and “AGTCTTACTTGGGTTCTAACCTGTTGCCATA [AGTCTTACTTG_LTGcore_CT_RTGcore_TA] (site AGTCTTACTTG) (LTG core: CT, RTG core: TA)” are within 0.2 log units of each other in “recombinant barcode read abundance (log10)” value: 0.139 for the first, 0.136 for the second.

“TAGAGGGAATGGGTTCTAACCTGTTGCGGTT [TAGAGGGCTCC_LTGcore_AA_RTGcore_AA] (site TAGAGGGCTCC) (LTG core: AA, RTG core: AA)” and “AAACATGCGTGGGTTCTAACCTGTTGCCTAG [AAACATGCTAG_LTGcore_CG_RTGcore_CT] (site AAACATGCTAG) (LTG core: CG, RTG core: CT)” are within 0.2 log units of each other in “recombinant barcode read abundance (log10)” value: 0.0221 for the first, 0.0702 for the second.

“TAGAGGGCTTGGGTTCTAACCTGTTGCGGGT [TAGAGGGCTCC_LTGcore_CT_RTGcore_AC] (site TAGAGGGCTCC) (LTG core: CT, RTG core: AC)” and “ATGCTTTCTTGGGTTCTAACCTGTTGCCTTG [ATGCTTTCTAG_LTGcore_CT_RTGcore_CA] (site ATGCTTTCTAG) (LTG core: CT, RTG core: CA)” are within 0.2 log units of each other in “recombinant barcode read abundance (log10)” value: 0.122 for the first, 0.0598 for the second.

Compared with “AGGAGGTGCTGGGTTCTAACCTGTTGCCTAG [AGGAGGTCTAG_LTGcore_GC_RTGcore_CT] (site AGGAGGTCTAG) (LTG core: GC, RTG core: CT)”, “AAACATGTATGGGTTCTAACCTGTTGCCTTA [AAACATGCTAG_LTGcore_TA_RTGcore_TA] (site AAACATGCTAG) (LTG core: TA, RTG core: TA)” is lower in “recombinant barcode read abundance (log10)” value: 0.292 for the first, 0.0913 for the second.

Compared with “AAACAGTCTTGGGTTCTAACCTGTTGCCTCA [AAACAGTCTAG_LTGcore_CT_RTGcore_TG] (site AAACAGTCTAG) (LTG core: CT, RTG core: TG)”, “GTCGCCCAGTGGGTTCTAACCTGTTGCTAAG [GTCGCCCCTTA_LTGcore_AG_RTGcore_CT] (site GTCGCCCCTTA) (LTG core: AG, RTG core: CT)” is lower in “recombinant barcode read abundance (log10)” value: 0.601 for the first, 0.139 for the second.

First: ACGGGACCTTGGGTTCTAACCTGTTGCAGAA [ACGGGACCTCT_LTGcore_CT_RTGcore_TT] (site ACGGGACCTCT) (LTG core: CT, RTG core: TT)
Second: TTATAAAGATGGGTTCTAACCTGTTGCCTAG [TTATAAACTAG_LTGcore_GA_RTGcore_CT] (site TTATAAACTAG) (LTG core: GA, RTG core: CT)
The “recombinant barcode read abundance (log10)” value of the first is higher: 0.387 for the first, 0.0604 for the second.

“CGAGCCCACTGGGTTCTAACCTGTTGCTGAG [CGAGCCCCTCA_LTGcore_AC_RTGcore_CT] (site CGAGCCCCTCA) (LTG core: AC, RTG core: CT)” and “GAGTCCTCATGGGTTCTAACCTGTTGCCTTG [GAGTCCTCTAG_LTGcore_CA_RTGcore_CA] (site GAGTCCTCTAG) (LTG core: CA, RTG core: CA)” are within 0.2 log units of each other in “recombinant barcode read abundance (log10)” value: 0.0532 for the first, 0.185 for the second.

Going from “GGCTCCCCTTGGGTTCTAACCTGTTGCGGGA [GGCTCCCCTCC_LTGcore_CT_RTGcore_TC] (site GGCTCCCCTCC) (LTG core: CT, RTG core: TC)” to “TCGCGACTCTGGGTTCTAACCTGTTGCCGGA [TCGCGACCTCG_LTGcore_TC_RTGcore_TC] (site TCGCGACCTCG) (LTG core: TC, RTG core: TC)”, the “recombinant barcode read abundance (log10)” value falls from 0.302 to 0.0969.

“GGTGCCCCTTGGGTTCTAACCTGTTGCCGTC [GGTGCCCCTCG_LTGcore_CT_RTGcore_GA] (site GGTGCCCCTCG) (LTG core: CT, RTG core: GA)” and “GGGAGCCCTTGGGTTCTAACCTGTTGCTGGA [GGGAGCCCTCA_LTGcore_CT_RTGcore_TC] (site GGGAGCCCTCA) (LTG core: CT, RTG core: TC)” are within 0.2 log units of each other in “recombinant barcode read abundance (log10)” value: 0.332 for the first, 0.172 for the second.

“GGACACCTGTGGGTTCTAACCTGTTGCCTAG [GGACACCCTAG_LTGcore_TG_RTGcore_CT] (site GGACACCCTAG) (LTG core: TG, RTG core: CT)” and “GGGCGTGTATGGGTTCTAACCTGTTGCCTAG [GGGCGTGCTAG_LTGcore_TA_RTGcore_CT] (site GGGCGTGCTAG) (LTG core: TA, RTG core: CT)” are within 0.2 log units of each other in “recombinant barcode read abundance (log10)” value: 0.0753 for the first, 0 for the second.

“GTCGCCCCATGGGTTCTAACCTGTTGCTATG [GTCGCCCCTTA_LTGcore_CA_RTGcore_CA] (site GTCGCCCCTTA) (LTG core: CA, RTG core: CA)” and “TAGAGGGCATGGGTTCTAACCTGTTGCGGTG [TAGAGGGCTCC_LTGcore_CA_RTGcore_CA] (site TAGAGGGCTCC) (LTG core: CA, RTG core: CA)” are within 0.2 log units of each other in “recombinant barcode read abundance (log10)” value: 0.379 for the first, 0.23 for the second.

“GAGCCCAAATGGGTTCTAACCTGTTGCCTAG [GAGCCCACTAG_LTGcore_AA_RTGcore_CT] (site GAGCCCACTAG) (LTG core: AA, RTG core: CT)” and “TCTACCCAATGGGTTCTAACCTGTTGCTGAG [TCTACCCCTCA_LTGcore_AA_RTGcore_CT] (site TCTACCCCTCA) (LTG core: AA, RTG core: CT)” are within 0.2 log units of each other in “recombinant barcode read abundance (log10)” value: 0.0475 for the first, 0.0508 for the second.

“AGTCTTAGCTGGGTTCTAACCTGTTGCCAGC [AGTCTTACTTG_LTGcore_GC_RTGcore_GC] (site AGTCTTACTTG) (LTG core: GC, RTG core: GC)” and “GAGTCCTCCTGGGTTCTAACCTGTTGCCTAG [GAGTCCTCTAG_LTGcore_CC_RTGcore_CT] (site GAGTCCTCTAG) (LTG core: CC, RTG core: CT)” are within 0.2 log units of each other in “recombinant barcode read abundance (log10)” value: 0.197 for the first, 0.191 for the second.

Compared with “GGGCGTGCTTGGGTTCTAACCTGTTGCCTCC [GGGCGTGCTAG_LTGcore_CT_RTGcore_GG] (site GGGCGTGCTAG) (LTG core: CT, RTG core: GG)”, “GTCGCCCCTTGGGTTCTAACCTGTTGCTAGC [GTCGCCCCTTA_LTGcore_CT_RTGcore_GC] (site GTCGCCCCTTA) (LTG core: CT, RTG core: GC)” is lower in “recombinant barcode read abundance (log10)” value: 1.53 for the first, 0.805 for the second.

First: CATATTACGTGGGTTCTAACCTGTTGCCTCG [CATATTACTAG_LTGcore_CG_RTGcore_CG] (site CATATTACTAG) (LTG core: CG, RTG core: CG)
Second: AAACATGCTTGGGTTCTAACCTGTTGCCTCC [AAACATGCTAG_LTGcore_CT_RTGcore_GG] (site AAACATGCTAG) (LTG core: CT, RTG core: GG)
The “recombinant barcode read abundance (log10)” value of the first is higher: 0.443 for the first, 0.177 for the second.

“AGGCGGTTGTGGGTTCTAACCTGTTGCTTCA [AGGCGGTCTAA_LTGcore_TG_RTGcore_TG] (site AGGCGGTCTAA) (LTG core: TG, RTG core: TG)” and “CGAGCCCAATGGGTTCTAACCTGTTGCTGAG [CGAGCCCCTCA_LTGcore_AA_RTGcore_CT] (site CGAGCCCCTCA) (LTG core: AA, RTG core: CT)” are within 0.2 log units of each other in “recombinant barcode read abundance (log10)” value: 0.0951 for the first, 0.0167 for the second.

“AGGAGGTCCTGGGTTCTAACCTGTTGCCTAG [AGGAGGTCTAG_LTGcore_CC_RTGcore_CT] (site AGGAGGTCTAG) (LTG core: CC, RTG core: CT)” and “GGGCGGAGATGGGTTCTAACCTGTTGCGGTC [GGGCGGACTCC_LTGcore_GA_RTGcore_GA] (site GGGCGGACTCC) (LTG core: GA, RTG core: GA)” are within 0.2 log units of each other in “recombinant barcode read abundance (log10)” value: 0.336 for the first, 0.235 for the second.

First: GCGGGACGCTGGGTTCTAACCTGTTGCCTAG [GCGGGACCTAG_LTGcore_GC_RTGcore_CT] (site GCGGGACCTAG) (LTG core: GC, RTG core: CT)
Second: GAGTCCTCTTGGGTTCTAACCTGTTGCCTAG [GAGTCCTCTAG_LTGcore_CT_RTGcore_CT] (site GAGTCCTCTAG) (LTG core: CT, RTG core: CT)
The “recombinant barcode read abundance (log10)” value of the first is lower: 0.137 for the first, 2.17 for the second.

“AGGCGGGAATGGGTTCTAACCTGTTGCGGTT [AGGCGGGCTCC_LTGcore_AA_RTGcore_AA] (site AGGCGGGCTCC) (LTG core: AA, RTG core: AA)” and “GAGTCCTCGTGGGTTCTAACCTGTTGCCTCG [GAGTCCTCTAG_LTGcore_CG_RTGcore_CG] (site GAGTCCTCTAG) (LTG core: CG, RTG core: CG)” are within 0.2 log units of each other in “recombinant barcode read abundance (log10)” value: 0.154 for the first, 0.0506 for the second.
